Measurements: publication PMC7180948, “New Insights into 4-Anilinoquinazolines as Inhibitors of Cardiac Troponin I–Interacting Kinase (TNNi3K)” (Molecules, 2020)

How the values were obtained:
Assay in all cases: biochemical
Parameters in all cases: KINOMEscan competition binding panel (Eurofins DiscoverX), single concentration, percent inhibition
Details in all cases: read-out: 15 at 1 µM % inhibition
SRC = SRC (Homo sapiens, UniProt P12931)
Method in brief: (§1)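 Compounds were submitted at 1 µM to a KINOMEscan assay covering more than 400 human kinases. The screen served to define the selectivity profile.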

p38-gamma = biological target: T1, p38-gamma (Homo sapiens, UniProt P53778)
T1 construct: gene MAPK12
Method in brief: as §1

RET(V804L) = RET(V804L) (Homo sapiens, UniProt P07949, V804L)
Method in brief: as §1

TAOK2 = TAOK2 (Homo sapiens, UniProt Q9UL54)
Method in brief: as §1

OSR1 = biological target: T2, OSR1 (Homo sapiens, UniProt O95747)
T2 construct: gene OXSR1
Method in brief: as §1

FLT1 = FLT1 (Homo sapiens, UniProt P17948)
Method in brief: as §1

TNK2 = TNK2 (Homo sapiens, UniProt Q07912)
Method in brief: as §1

CIT = CIT (Homo sapiens, UniProt O14578)
Method in brief: as §1

ACVR2A = ACVR2A (Homo sapiens, UniProt P27037)
Method in brief: as §1

MYLK4 = MYLK4 (Homo sapiens, UniProt Q86YV6)
Method in brief: as §1

ADCK3 = biological target: T3, ADCK3 (Homo sapiens, UniProt Q8NI60)
T3 construct: gene COQ8A
Method in brief: as §1

KIT(D816H) = KIT(D816H) (Homo sapiens, UniProt P10721, D816H)
Method in brief: as §1

ERBB2 = ERBB2 (Homo sapiens, UniProt P04626)
Method in brief: as §1

CSNK1G2 = CSNK1G2 (Homo sapiens, UniProt P78368)
Method in brief: as §1

HASPIN = HASPIN (Homo sapiens, UniProt Q8TF76)
Method in brief: as §1

MKK7 = biological target: T4, MKK7 (Homo sapiens, UniProt O14733)
T4 construct: gene MAP2K7
Method in brief: as §1

NEK9 = NEK9 (Homo sapiens, UniProt Q8TD19)
Method in brief: as §1

[1] = biological target: T5, ABL1(T315I)-phosphorylated (Homo sapiens, UniProt P00519, T315I)
T5 construct: phosphorylated
Method in brief: as §1

KIT(A829P) = KIT(A829P) (Homo sapiens, UniProt P10721, A829P)
Method in brief: as §1

AKT1 = AKT1 (Homo sapiens, UniProt P31749)
Method in brief: as §1

MAP4K4 = MAP4K4 (Homo sapiens, UniProt O95819)
Method in brief: as §1

PLK4 = PLK4 (Homo sapiens, UniProt O00444)
Method in brief: as §1

PIP5K1C = PIP5K1C (Homo sapiens, UniProt O60331)
Method in brief: as §1

GAK = GAK (Homo sapiens, UniProt O14976)
Method in brief: as §1

KIT(D816H), sequence (P10721 whole entry D816H): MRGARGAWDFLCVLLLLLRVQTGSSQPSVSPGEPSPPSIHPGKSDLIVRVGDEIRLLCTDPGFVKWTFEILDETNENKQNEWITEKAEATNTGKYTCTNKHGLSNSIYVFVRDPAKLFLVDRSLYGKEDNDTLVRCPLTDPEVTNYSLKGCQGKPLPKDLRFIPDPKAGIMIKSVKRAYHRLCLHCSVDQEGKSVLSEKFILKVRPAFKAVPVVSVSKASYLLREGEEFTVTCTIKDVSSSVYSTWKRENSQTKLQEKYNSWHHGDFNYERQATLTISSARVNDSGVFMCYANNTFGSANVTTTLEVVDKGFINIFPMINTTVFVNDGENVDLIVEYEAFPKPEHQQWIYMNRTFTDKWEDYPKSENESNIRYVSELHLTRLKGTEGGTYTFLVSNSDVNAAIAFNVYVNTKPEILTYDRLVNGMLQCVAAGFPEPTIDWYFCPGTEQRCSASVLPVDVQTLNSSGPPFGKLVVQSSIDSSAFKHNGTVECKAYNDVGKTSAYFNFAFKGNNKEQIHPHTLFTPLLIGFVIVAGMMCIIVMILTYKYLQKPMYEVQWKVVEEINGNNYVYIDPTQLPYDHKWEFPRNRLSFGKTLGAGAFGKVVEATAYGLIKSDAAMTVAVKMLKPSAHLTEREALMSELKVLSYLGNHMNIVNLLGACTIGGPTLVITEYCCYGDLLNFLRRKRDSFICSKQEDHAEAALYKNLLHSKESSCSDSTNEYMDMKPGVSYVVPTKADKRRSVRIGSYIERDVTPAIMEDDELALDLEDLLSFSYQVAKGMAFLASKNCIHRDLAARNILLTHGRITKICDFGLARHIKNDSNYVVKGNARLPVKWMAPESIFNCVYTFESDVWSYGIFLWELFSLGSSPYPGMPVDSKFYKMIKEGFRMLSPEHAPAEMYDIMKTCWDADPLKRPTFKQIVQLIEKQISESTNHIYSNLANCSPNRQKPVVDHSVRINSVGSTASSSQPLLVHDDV
PIP5K1C, sequence (O60331 whole entry): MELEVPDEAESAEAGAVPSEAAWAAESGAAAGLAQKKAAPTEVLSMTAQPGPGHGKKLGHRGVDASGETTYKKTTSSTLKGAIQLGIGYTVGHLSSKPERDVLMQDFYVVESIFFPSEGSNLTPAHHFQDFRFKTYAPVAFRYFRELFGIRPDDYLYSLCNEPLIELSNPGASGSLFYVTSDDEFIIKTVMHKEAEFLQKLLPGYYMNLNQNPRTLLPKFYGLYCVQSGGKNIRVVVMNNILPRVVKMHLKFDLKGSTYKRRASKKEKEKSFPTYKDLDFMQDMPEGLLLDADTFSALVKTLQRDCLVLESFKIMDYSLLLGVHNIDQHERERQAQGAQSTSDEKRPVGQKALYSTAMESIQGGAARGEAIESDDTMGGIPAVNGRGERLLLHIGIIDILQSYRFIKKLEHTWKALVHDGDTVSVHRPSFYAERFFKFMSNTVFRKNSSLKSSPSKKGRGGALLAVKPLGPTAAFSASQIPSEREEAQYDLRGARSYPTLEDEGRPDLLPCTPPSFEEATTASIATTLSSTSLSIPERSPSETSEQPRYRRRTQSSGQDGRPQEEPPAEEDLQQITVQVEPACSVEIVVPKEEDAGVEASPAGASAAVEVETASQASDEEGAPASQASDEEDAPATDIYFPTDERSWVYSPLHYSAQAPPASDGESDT
KIT(A829P), sequence (P10721 whole entry A829P): as the sequence (P10721 whole entry D816H) above, with H816D, A829P counted along it
T4 sequence (O14733 whole entry): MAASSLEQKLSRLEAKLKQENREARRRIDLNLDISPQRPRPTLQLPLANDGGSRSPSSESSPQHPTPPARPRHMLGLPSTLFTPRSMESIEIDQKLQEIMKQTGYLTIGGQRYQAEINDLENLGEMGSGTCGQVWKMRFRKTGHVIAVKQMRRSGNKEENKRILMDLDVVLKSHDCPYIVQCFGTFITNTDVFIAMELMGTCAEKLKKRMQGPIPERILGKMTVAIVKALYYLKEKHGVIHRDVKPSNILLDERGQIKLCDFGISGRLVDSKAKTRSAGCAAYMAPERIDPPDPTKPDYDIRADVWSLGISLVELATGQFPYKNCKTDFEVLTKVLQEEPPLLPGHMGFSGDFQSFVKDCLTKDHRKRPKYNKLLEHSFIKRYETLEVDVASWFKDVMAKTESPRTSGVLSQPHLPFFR
MYLK4, sequence (Q86YV6 whole entry): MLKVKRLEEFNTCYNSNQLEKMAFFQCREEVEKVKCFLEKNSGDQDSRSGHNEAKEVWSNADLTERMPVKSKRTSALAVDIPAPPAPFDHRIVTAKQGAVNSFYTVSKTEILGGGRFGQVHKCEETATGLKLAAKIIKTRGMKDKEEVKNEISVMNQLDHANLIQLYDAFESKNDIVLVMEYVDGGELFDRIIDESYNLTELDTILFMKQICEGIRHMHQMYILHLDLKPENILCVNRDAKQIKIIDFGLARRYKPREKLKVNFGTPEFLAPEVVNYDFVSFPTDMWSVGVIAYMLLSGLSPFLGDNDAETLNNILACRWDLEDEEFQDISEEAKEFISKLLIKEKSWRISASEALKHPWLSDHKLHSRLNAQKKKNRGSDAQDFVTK
AKT1, sequence (P31749 whole entry): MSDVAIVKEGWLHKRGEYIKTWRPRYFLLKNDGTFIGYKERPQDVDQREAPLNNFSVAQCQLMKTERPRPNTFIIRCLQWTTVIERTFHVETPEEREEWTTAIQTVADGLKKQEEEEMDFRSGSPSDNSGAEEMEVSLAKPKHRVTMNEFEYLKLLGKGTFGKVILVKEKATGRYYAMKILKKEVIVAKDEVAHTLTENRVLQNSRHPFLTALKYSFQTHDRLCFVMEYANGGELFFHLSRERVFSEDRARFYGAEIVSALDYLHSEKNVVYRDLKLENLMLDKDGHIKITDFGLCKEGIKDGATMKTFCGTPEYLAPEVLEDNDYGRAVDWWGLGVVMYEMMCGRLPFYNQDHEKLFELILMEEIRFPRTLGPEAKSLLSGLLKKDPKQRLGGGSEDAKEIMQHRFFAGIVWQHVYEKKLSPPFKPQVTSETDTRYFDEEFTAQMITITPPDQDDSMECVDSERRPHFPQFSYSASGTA
CIT, sequence (O14578 whole entry): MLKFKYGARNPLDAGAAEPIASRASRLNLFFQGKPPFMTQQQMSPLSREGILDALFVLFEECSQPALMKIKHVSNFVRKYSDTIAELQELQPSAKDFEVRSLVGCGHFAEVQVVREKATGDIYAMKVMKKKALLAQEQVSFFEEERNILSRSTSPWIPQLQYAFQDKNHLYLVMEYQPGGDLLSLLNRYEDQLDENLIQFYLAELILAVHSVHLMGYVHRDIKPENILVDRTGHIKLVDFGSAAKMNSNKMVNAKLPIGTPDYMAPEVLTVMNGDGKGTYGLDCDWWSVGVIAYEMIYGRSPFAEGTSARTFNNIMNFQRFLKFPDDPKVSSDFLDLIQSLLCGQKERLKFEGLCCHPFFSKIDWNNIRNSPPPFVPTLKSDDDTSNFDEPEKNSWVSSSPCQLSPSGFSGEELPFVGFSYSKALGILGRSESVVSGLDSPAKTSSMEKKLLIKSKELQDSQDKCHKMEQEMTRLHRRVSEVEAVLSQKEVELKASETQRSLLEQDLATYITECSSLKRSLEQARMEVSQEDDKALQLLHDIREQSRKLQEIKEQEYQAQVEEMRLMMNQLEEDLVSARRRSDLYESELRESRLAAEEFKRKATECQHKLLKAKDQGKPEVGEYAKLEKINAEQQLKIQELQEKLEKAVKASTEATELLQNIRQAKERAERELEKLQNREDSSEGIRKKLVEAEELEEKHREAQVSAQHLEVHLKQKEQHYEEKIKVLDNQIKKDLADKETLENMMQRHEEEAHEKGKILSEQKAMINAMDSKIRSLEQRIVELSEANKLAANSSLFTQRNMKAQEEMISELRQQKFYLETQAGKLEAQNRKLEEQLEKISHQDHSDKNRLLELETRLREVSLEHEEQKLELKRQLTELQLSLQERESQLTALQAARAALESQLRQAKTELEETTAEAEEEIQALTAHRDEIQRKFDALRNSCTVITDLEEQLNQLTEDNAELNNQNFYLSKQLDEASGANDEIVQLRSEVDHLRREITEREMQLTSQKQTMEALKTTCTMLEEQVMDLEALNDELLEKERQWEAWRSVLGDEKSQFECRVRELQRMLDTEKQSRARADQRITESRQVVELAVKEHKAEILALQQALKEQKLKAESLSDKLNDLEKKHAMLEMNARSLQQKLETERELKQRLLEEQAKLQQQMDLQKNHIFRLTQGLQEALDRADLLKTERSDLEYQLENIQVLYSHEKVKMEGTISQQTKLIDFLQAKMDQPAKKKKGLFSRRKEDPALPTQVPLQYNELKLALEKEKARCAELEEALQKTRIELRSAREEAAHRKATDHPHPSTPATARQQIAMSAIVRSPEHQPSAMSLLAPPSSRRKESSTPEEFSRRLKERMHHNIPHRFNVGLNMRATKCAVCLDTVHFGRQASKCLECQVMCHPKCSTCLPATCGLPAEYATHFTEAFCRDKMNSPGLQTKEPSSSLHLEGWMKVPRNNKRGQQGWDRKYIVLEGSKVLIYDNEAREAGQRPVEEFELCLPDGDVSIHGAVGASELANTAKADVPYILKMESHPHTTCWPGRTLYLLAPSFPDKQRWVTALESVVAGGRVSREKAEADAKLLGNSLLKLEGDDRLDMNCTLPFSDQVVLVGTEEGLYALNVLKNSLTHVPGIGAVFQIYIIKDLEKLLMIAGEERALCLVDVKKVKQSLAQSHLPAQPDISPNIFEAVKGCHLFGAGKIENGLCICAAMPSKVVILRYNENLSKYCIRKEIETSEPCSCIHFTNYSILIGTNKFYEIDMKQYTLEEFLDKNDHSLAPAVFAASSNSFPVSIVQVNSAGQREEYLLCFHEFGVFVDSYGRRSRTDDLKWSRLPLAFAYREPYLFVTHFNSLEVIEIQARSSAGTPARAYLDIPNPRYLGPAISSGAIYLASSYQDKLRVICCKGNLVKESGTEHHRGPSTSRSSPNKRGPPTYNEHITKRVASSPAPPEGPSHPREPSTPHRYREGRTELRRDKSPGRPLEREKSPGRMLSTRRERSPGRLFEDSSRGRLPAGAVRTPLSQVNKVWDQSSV

- inhibition at 1 µM (SRC): 0%
- inhibition at 1 µM (p38-gamma): 17%
- inhibition at 1 µM (RET(V804L)): 0%
- inhibition at 1 µM (TAOK2): 15%
- inhibition at 1 µM (OSR1): 42%
- inhibition at 1 µM (FLT1): 0%
- inhibition at 1 µM (TNK2): 0%
- inhibition at 1 µM (CIT): 4%
- inhibition at 1 µM (ACVR2A): 0%
- inhibition at 1 µM (MYLK4): 0%
- inhibition at 1 µM (ADCK3): 9%
- inhibition at 1 µM (KIT(D816H)): 16%
- inhibition at 1 µM (ERBB2): 1%
- inhibition at 1 µM (CSNK1G2): 0%
- inhibition at 1 µM (HASPIN): 0%
- inhibition at 1 µM (MKK7): 30%
- inhibition at 1 µM [1]: 0%
- inhibition at 1 µM (KIT(A829P)): 42%
- inhibition at 1 µM (AKT1): 0%
- inhibition at 1 µM (MAP4K4): 9%
- inhibition at 1 µM (PLK4): 23%
- inhibition at 1 µM (PIP5K1C): 18%
- inhibition at 1 µM (GAK): 78%
Compound: CNS(=O)(=O)c1ccc(N(C)C)c(Nc2nc(C)nc3cc(OC)c(OC)cc23)c1 [compound 15, 3-((6,7-dimethoxy-2-methylquinazolin-4-yl)amino)-4-(dimethylamino)-N-methylbenzenesulfonamide]
- inhibition at 1 µM (NEK9): 0%
